The values that follow come from PubChem BioAssay AID1259407 (Chemical Carcinogenesis Research Information System (CCRIS), 2018).

In the series the test system is CCRIS mutagenicity, Ames/micronucleus/aberration tests. Description: CCRIS mutagenicity studies.
Where [1] appears, read: Test System: AMES SALMONELLA TYPHIMURIUM, Strain/Indicator: TA98, Metabolic Activation: NONE, Method: PREINCUBATION
Setting [2] is: Test System: AMES SALMONELLA TYPHIMURIUM, Strain/Indicator: TA98, Metabolic Activation: NONE, Method: STANDARD PLATE.
Setting [3] is: Test System: AMES SALMONELLA TYPHIMURIUM, Strain/Indicator: TA98, Metabolic Activation: RAT, LIVER, S-9, AROCLOR 1254, Method: STANDARD PLATE.
Where [4] appears, read: Test System: AMES SALMONELLA TYPHIMURIUM, Strain/Indicator: TA100, Metabolic Activation: NONE, Method: STANDARD PLATE.
The mark [5] stands for this setting: Test System: AMES SALMONELLA TYPHIMURIUM, Strain/Indicator: TA100, Metabolic Activation: RAT, LIVER, S-9, AROCLOR 1254, Method: STANDARD PLATE.
Where [6] appears, read: Test System: AMES SALMONELLA TYPHIMURIUM, Strain/Indicator: TA98, Metabolic Activation: RAT, LIVER, S-9, Method: STANDARD PLATE.
Where [7] appears, read: Test System: AMES SALMONELLA TYPHIMURIUM, Strain/Indicator: TA100, Metabolic Activation: RAT, LIVER, S-9, Method: STANDARD PLATE.
[8] abbreviates: Test System: AMES SALMONELLA TYPHIMURIUM, Strain/Indicator: TA1535, Metabolic Activation: NONE, Method: STANDARD PLATE.
The mark [9] stands for this setting: Test System: AMES SALMONELLA TYPHIMURIUM, Strain/Indicator: TA100, Metabolic Activation: NONE, Method: PREINCUBATION
[10] abbreviates: Test System: AMES SALMONELLA TYPHIMURIUM, Strain/Indicator: TA1535, Metabolic Activation: RAT, LIVER, S-9, AROCLOR 1254, Method: STANDARD PLATE.
The mark [11] stands for this setting: Test System: AMES SALMONELLA TYPHIMURIUM, Strain/Indicator: TA1537, Metabolic Activation: NONE, Method: STANDARD PLATE.
Where [12] appears, read: Test System: AMES SALMONELLA TYPHIMURIUM, Strain/Indicator: TA1537, Metabolic Activation: RAT, LIVER, S-9, AROCLOR 1254, Method: STANDARD PLATE.

Structures are written as SMILES. Calls of active or inactive are those of the source. The rule behind the calls is not given here.

As to `O=[N+]([O-])c1ccc2c(c1)Cc1cc([N+](=O)[O-])ccc1-2`, the mutagenic call was “active; positive” (Test System: AMES SALMONELLA TYPHIMURIUM, Strain/Indicator: TA98(1,8-DNP6), Metabolic Activation: NONE, Method: STANDARD PLATE); “active; positive” (Test System: AMES SALMONELLA TYPHIMURIUM, Strain/Indicator: TA98(NR), Metabolic Activation: NONE, Method: STANDARD PLATE); “active; positive” under setting [1]; “active; positive” under setting [2]; “active; positive” under setting [3]; “active; positive” (Test System: AMES SALMONELLA TYPHIMURIUM, Strain/Indicator: TA98, Metabolic Activation: RAT, LIVER, S-9, PCB (10%), Method: PREINCUBATION). Also, the mutagenic call by setting is: under setting [4], “active; positive”; under setting [5], “active; positive”.
Consider `COc1nsc2ccc([N+](=O)[O-])cc12`, for which the mutagenic call under setting [4] is “active; positive”.
Regarding `Cc1cc(C)c(N)c(C)c1N`, the mutagenic call runs as follows: (Test System: AMES SALMONELLA TYPHIMURIUM, Strain/Indicator: TA97, Metabolic Activation: NONE, Method: STANDARD PLATE) “inactive; negative”; (Test System: AMES SALMONELLA TYPHIMURIUM, Strain/Indicator: TA97, Metabolic Activation: RAT, LIVER, S-9, Method: STANDARD PLATE) “active; positive”; under setting [2], “inactive; negative”; under setting [6], “active; positive”; under setting [4], “active; positive”; under setting [7], “active; positive”. In addition, the mutagenic call runs as follows: under setting [8], “active; positive”; (Test System: AMES SALMONELLA TYPHIMURIUM, Strain/Indicator: TA1535, Metabolic Activation: RAT, LIVER, S-9, Method: STANDARD PLATE) “active; positive”.
Turning to `O=[N+]([O-])c1c2c(cc3ccccc13)C=C[C@@H](O)[C@@H]2O`, the mutagenic call by setting is: under setting [2], “inactive; negative”; under setting [6], “inactive; negative”; under setting [4], “inactive; negative”; under setting [7], “inactive; negative”.
In the case of `FC(F)(F)CC(F)(F)F`, the mutagenic call was “inactive; negative” (Test System: AMES SALMONELLA TYPHIMURIUM, Strain/Indicator: TA97, Metabolic Activation: NONE, Method: CLOSED GLASS VESSEL); “inactive; negative” (Test System: AMES SALMONELLA TYPHIMURIUM, Strain/Indicator: TA97, Metabolic Activation: RAT LIVER S-9, AROCLOR 1254, Method: CLOSED GLASS VESSEL); “inactive; negative” (Test System: AMES SALMONELLA TYPHIMURIUM, Strain/Indicator: TA98, Metabolic Activation: NONE, Method: CLOSED GLASS VESSEL); “inactive; negative” (Test System: AMES SALMONELLA TYPHIMURIUM, Strain/Indicator: TA98, Metabolic Activation: RAT LIVER S-9, AROCLOR 1254, Method: CLOSED GLASS VESSEL); “inactive; negative” (Test System: AMES SALMONELLA TYPHIMURIUM, Strain/Indicator: TA100, Metabolic Activation: NONE, Method: CLOSED GLASS VESSEL); “inactive; negative” (Test System: AMES SALMONELLA TYPHIMURIUM, Strain/Indicator: TA100, Metabolic Activation: RAT LIVER S-9, AROCLOR 1254, Method: CLOSED GLASS VESSEL). Further, the mutagenic call (Test System: AMES SALMONELLA TYPHIMURIUM, Strain/Indicator: TA1535, Metabolic Activation: NONE, Method: CLOSED GLASS VESSEL) was “inactive; negative”; the mutagenic call (Test System: AMES SALMONELLA TYPHIMURIUM, Strain/Indicator: TA1535, Metabolic Activation: RAT LIVER S-9, AROCLOR 1254, Method: CLOSED GLASS VESSEL) was “inactive; negative”; the mutagenic call (Test System: ESCHERICHIA COLI, Strain/Indicator: WP2 UVR A, Metabolic Activation: NONE, Method: CLOSED GLASS VESSEL) was “inactive; negative”; the mutagenic call (Test System: ESCHERICHIA COLI, Strain/Indicator: WP2 UVR A, Metabolic Activation: RAT LIVER S-9, AROCLOR 1254, Method: CLOSED GLASS VESSEL) is “inactive; negative”.
Regarding `CC(C)(C)c1cc(/C=C/c2cc(C(C)(C)C)c(O)c(C(C)(C)C)c2)cc(C(C)(C)C)c1O`, the mutagenic call is, setting by setting: under setting [1], “inactive; negative”; (Test System: AMES SALMONELLA TYPHIMURIUM, Strain/Indicator: TA98, Metabolic Activation: RAT, LIVER, S-9, Method: PREINCUBATION) “inactive; negative”; under setting [9], “inactive; negative”; (Test System: AMES SALMONELLA TYPHIMURIUM, Strain/Indicator: TA100, Metabolic Activation: RAT, LIVER, S-9, Method: PREINCUBATION) “inactive; negative”.
`C=C(C)C(=O)OCCO`: the mutagenic call reads like this: (Test System: AMES SALMONELLA TYPHIMURIUM, Strain/Indicator: TA97A, Metabolic Activation: NONE, Method: STANDARD PLATE) “inactive; negative”; under setting [2], “inactive; negative”; under setting [3], “inactive; negative”; (Test System: AMES SALMONELLA TYPHIMURIUM, Strain/Indicator: TA98, Metabolic Activation: RAT, LIVER, S-9, SODIUM PHENOBARBITAL, Method: STANDARD PLATE) “inactive; negative”; under setting [4], “inactive; negative”; under setting [5], “inactive; negative”. In addition, the mutagenic call runs as follows: (Test System: AMES SALMONELLA TYPHIMURIUM, Strain/Indicator: TA100, Metabolic Activation: RAT, LIVER, S-9, SODIUM PHENOBARBITAL, Method: STANDARD PLATE) “inactive; negative”; (Test System: AMES SALMONELLA TYPHIMURIUM, Strain/Indicator: TA102, Metabolic Activation: NONE, Method: STANDARD PLATE) “inactive; negative”; (Test System: AMES SALMONELLA TYPHIMURIUM, Strain/Indicator: TA104, Metabolic Activation: NONE, Method: STANDARD PLATE) “inactive; negative”; under setting [8], “inactive; negative”; under setting [10], “inactive; negative”; (Test System: AMES SALMONELLA TYPHIMURIUM, Strain/Indicator: TA1535, Metabolic Activation: RAT, LIVER, S-9, SODIUM PHENOBARBITAL, Method: STANDARD PLATE) “inactive; negative”. The mutagenic call is, setting by setting: under setting [11], “inactive; negative”; under setting [12], “inactive; negative”; (Test System: AMES SALMONELLA TYPHIMURIUM, Strain/Indicator: TA1537, Metabolic Activation: RAT, LIVER, S-9, SODIUM PHENOBARBITAL, Method: STANDARD PLATE) “inactive; negative”; (Test System: AMES SALMONELLA TYPHIMURIUM, Strain/Indicator: TA1538, Metabolic Activation: NONE, Method: STANDARD PLATE) “inactive; negative”; (Test System: AMES SALMONELLA TYPHIMURIUM, Strain/Indicator: TA1538, Metabolic Activation: RAT, LIVER, S-9, AROCLOR 1254, Method: STANDARD PLATE) “inactive; negative”; (Test System: AMES SALMONELLA TYPHIMURIUM, Strain/Indicator: TA1538, Metabolic Activation: RAT, LIVER, S-9, SODIUM PHENOBARBITAL, Method: STANDARD PLATE) “inactive; negative”. For the same molecule, the mutagenic call (Test System: CHINESE HAMSTER V-79, Strain/Indicator: V79 (HPRT)/6-THIOGUANINE, Metabolic Activation: NONE) is “inactive; negative”.
With `CC(=C\C1=CCOC1=O)/C=C(C)/C=C/C=C(\C)C(=O)[C@]12O[C@H]1[C@@](O)(CCO)NC2=O`, the mutagenic call under setting [9] is “active; positive”.
Regarding `O=C1CCC(=O)N1O`, the mutagenic call runs as follows: under setting [2], “inactive; negative”; under setting [3], “inactive; negative”; under setting [4], “inactive; negative”; under setting [5], “inactive; negative”; under setting [8], “inactive; negative”; under setting [10], “inactive; negative”. Further, the mutagenic call was “inactive; negative” under setting [11] and “inactive; negative” under setting [12].
